In one test the target is 5-HT1a (Homo sapiens, UniProt P08908). The test can be described thus: In vitro receptor binding, 5-HT1a. The note with it: given in words, no number. As to the method:
(§1) Three of the compounds predicted to display antipsychotic activity have been synthesized and characterized. Once compounds meeting selection criteria of the spectral models were identified, confirmatory in vitro screening and cross-screening were conducted. For example, receptor binding studies were conducted for 5-HT1A, 5-HT2A, 5-HT2C, 5-HT6, 5-HT7, α1A, α1B, α1D, α2A, α2B, α2C, D2, H1, M1, M2, M3, M4, and M5 to further determine a broad pharmacological profile for compounds meeting spectral modeling selection criteria. Synthesis and characterization of these compounds is provided as an Experimental Example. […] For D2 and 5-HT2A receptors, experimental results were within 11% of predicted values. […] In some embodiments, the compounds are selective for 5-HT2A over D2. […] As such the compounds are advantageous over clozapine and may be beneficial for treating psychotic conditions, such as schizophrenia.

A further test has as its target 5-HT2a (Homo sapiens, UniProt P28223). The test can be described thus: In vitro receptor binding, 5-HT2a. To be noted: read-out: In vitro testing data (receptor binding affinity), 5-HT2a. Here is the method:
as §1

A further test concerns the target 5-HT2c (Homo sapiens, UniProt P28335). Nature of the test: In vitro receptor binding, 5-HT2c. To be noted: read-out: In vitro testing data (receptor binding affinity), 5-HT2c. Here is the method:
as §1

Another test has as its target 5-HT6 (Homo sapiens, UniProt P50406). The test can be described thus: In vitro receptor binding, 5-HT6. The note with it: read-out: In vitro testing data (receptor binding affinity), 5-HT6. As to the method: as §1
The target in a further test is 5-HT7 (Homo sapiens, UniProt P34969). The test can be described thus: In vitro receptor binding, 5-HT7. To be noted: read-out: In vitro testing data (receptor binding affinity), 5-HT7. Here is the method:
as §1

For another test, the target named is Alpha 1A (Homo sapiens, UniProt P35348). Nature of the test: In vitro receptor binding, Alpha 1A. The note with it: given in words, no number. As to the method:
as §1

The target of the next test is Alpha 1B (Homo sapiens, UniProt P35368). The test can be described thus: In vitro receptor binding, Alpha 1B. The note with it: given in words, no number. As to the method: as §1
Sequence of Alpha 1B (P35368 whole entry): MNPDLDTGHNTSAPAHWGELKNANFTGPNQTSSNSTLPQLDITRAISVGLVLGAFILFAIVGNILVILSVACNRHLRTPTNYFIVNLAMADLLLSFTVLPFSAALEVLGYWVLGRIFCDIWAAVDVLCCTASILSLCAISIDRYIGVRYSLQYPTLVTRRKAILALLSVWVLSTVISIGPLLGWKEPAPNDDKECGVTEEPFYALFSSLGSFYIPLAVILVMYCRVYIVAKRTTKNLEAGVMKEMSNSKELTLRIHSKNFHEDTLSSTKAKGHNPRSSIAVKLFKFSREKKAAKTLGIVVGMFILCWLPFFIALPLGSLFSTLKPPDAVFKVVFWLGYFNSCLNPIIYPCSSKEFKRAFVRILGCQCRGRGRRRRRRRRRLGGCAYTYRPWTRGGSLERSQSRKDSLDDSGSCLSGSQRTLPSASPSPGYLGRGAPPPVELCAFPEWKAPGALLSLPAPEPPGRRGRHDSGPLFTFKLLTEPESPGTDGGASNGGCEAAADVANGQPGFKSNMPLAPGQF
The target of a further test is Alpha 1D (Homo sapiens, UniProt P25100). The test can be described thus: In vitro receptor binding, Alpha 1D. To be noted: given in words, no number. Here is the method: as §1
Sequence of Alpha 1D (P25100 whole entry): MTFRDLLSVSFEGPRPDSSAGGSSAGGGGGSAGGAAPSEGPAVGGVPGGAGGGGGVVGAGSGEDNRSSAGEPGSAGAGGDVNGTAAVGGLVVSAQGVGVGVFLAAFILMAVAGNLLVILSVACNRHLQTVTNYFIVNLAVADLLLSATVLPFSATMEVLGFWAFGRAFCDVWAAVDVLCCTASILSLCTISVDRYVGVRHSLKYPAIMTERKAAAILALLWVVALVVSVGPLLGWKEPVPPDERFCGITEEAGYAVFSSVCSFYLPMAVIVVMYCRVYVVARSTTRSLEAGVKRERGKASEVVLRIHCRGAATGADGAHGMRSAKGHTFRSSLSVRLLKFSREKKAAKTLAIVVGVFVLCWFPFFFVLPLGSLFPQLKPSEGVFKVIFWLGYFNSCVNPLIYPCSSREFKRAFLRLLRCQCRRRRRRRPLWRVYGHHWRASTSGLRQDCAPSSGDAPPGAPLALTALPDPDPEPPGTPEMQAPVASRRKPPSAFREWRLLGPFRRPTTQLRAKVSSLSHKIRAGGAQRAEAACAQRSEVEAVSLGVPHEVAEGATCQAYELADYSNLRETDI
The next test concerns the target Alpha 2A (Homo sapiens, UniProt P08913). Nature of the test: In vitro receptor binding, Alpha 2A. The note with it: given in words, no number. Here is the method:
as §1

The next test deals with Alpha 2B (Homo sapiens, UniProt P18089). Nature of the test: In vitro receptor binding, Alpha 2B. To be noted: given in words, no number. Here is the method: as §1
Sequence of Alpha 2B (P18089 whole entry): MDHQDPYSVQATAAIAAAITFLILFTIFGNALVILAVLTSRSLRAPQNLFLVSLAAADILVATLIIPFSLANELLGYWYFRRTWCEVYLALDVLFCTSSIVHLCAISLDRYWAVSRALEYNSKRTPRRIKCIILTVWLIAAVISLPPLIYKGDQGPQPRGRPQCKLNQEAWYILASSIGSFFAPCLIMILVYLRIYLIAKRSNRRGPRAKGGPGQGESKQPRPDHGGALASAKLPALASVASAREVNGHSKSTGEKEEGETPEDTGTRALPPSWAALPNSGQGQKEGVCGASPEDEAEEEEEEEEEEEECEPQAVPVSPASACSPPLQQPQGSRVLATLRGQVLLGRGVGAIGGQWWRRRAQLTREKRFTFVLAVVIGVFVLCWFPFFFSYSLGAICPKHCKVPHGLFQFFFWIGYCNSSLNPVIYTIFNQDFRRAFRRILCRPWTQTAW
The target of another test is Alpha 2C (Homo sapiens, UniProt P18825). The test can be described thus: In vitro receptor binding, Alpha 2C. The note with it: given in words, no number. Here is the method: as §1
The next test addresses D2 (Homo sapiens, UniProt P14416). Nature of the test: In vitro receptor binding, D2. To be noted: read-out: In vitro testing data (receptor binding affinity), D2. As to the method: as §1
The target of the next test is H1 (Homo sapiens, UniProt P35367). The test can be described thus: In vitro receptor binding, H1. The note with it: read-out: In vitro testing data (receptor binding affinity), H1. As to the method: as §1
Another test concerns the target M1 (Homo sapiens, UniProt P11229). Nature of the test: In vitro receptor binding, M1. To be noted: read-out: In vitro testing data (receptor binding affinity), M1. As to the method: as §1
The target of the next test is M2 (Homo sapiens, UniProt P08172). The test can be described thus: In vitro receptor binding, M2. The note with it: read-out: In vitro testing data (receptor binding affinity), M2. Here is the method: as §1
In a further test the target is M3 (Homo sapiens, UniProt P20309). The test can be described thus: In vitro receptor binding, M3. The note with it: read-out: In vitro testing data (receptor binding affinity), M3. Here is the method: as §1
Sequence of M3 (P20309 whole entry): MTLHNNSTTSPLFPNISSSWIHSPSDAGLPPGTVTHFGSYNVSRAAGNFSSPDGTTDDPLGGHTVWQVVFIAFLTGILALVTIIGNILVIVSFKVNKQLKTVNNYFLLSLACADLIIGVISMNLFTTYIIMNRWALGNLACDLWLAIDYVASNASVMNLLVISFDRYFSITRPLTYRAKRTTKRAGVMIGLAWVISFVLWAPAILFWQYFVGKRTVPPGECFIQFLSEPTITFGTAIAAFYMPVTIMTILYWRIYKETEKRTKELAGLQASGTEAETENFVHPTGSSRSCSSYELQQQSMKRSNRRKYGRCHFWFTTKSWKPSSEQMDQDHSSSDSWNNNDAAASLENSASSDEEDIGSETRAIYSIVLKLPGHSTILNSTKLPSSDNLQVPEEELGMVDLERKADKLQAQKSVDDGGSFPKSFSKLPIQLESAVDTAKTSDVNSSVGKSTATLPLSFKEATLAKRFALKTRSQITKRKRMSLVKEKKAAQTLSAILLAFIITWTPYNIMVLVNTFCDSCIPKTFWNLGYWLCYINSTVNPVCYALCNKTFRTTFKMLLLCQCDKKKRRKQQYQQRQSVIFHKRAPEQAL
The next test deals with M4 (Homo sapiens, UniProt P08173). Nature of the test: In vitro receptor binding, M4. The note with it: read-out: In vitro testing data (receptor binding affinity), M4. As to the method: as §1
Sequence of M4 (P08173 whole entry): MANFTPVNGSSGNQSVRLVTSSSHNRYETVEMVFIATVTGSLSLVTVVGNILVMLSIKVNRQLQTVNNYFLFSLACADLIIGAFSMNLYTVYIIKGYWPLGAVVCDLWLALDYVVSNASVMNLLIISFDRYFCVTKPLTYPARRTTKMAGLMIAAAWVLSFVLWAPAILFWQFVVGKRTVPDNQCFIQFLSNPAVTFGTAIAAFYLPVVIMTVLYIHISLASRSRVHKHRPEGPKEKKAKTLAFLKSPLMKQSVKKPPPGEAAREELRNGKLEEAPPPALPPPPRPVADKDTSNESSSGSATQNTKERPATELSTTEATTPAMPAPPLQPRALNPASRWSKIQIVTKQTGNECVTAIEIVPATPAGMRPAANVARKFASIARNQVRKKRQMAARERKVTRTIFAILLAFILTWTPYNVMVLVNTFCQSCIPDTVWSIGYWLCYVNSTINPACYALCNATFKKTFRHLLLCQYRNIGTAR
In another test the target is M5 (Homo sapiens, UniProt P08912). The test can be described thus: In vitro receptor binding, M5. To be noted: read-out: In vitro testing data (receptor binding affinity), M5. Here is the method: as §1
Sequence of M5 (P08912 whole entry): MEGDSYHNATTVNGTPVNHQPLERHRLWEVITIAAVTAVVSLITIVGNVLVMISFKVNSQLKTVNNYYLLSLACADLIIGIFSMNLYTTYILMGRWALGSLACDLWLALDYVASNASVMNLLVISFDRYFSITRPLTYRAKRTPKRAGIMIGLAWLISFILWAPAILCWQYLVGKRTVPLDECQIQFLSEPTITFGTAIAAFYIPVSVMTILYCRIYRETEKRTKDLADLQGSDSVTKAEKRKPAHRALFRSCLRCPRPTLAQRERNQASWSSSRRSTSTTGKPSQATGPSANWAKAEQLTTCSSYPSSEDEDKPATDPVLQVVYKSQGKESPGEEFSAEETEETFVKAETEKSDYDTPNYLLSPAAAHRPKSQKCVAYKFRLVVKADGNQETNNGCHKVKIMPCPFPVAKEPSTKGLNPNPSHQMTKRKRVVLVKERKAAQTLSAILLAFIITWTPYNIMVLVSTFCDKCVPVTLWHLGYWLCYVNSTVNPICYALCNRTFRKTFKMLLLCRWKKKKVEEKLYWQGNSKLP
In test [1] the test system is pre-frontal cortex dopamine release. Nature of the test: In vivo microdialysis, pre-frontal cortex dopamine release. To be noted: rat microdialysis. Details: species or system male Sprague-Dawley rats. As to the method: (§2) In vivo microdialysis studies were conducted according to established methods. In summary, two cannulae with microdialysis probes were implanted via stereotaxic surgery (one each into two separate brain regions), into the medial prefrontal cortex and nucleus accumbens of male Sprague-Dawley rats weighing from 250 g to 300 g. After recovery from surgery, a solution was circulated through the probes on test days collecting extracellular synaptic fluid at 30-minute intervals and delivering it to an HPLC for analysis of extracellular dopamine concentrations in real time following antipsychotic compound dosing. Simultaneously, an aliquot was taken and frozen for later mass spectrometric determination of acetylcholine concentrations.

The subject of test [2] is nucleus accumbens dopamine release. Nature of the test: In vivo microdialysis, nucleus accumbens dopamine release. Further details: species or system male Sprague-Dawley rats. To be noted: rat microdialysis; ceiling effect, increasing dose gave no additional release (FIG. 12). Here is the method: as §2
For test [3], the system named is pre-frontal cortex acetylcholine release. Nature of the test: In vivo microdialysis, pre-frontal cortex acetylcholine release. To be noted: rat microdialysis (FIG. 13); LMD-00100t at the maximum dose tested, data not shown. Details: species or system male Sprague-Dawley rats. As to the method: as §2

The values that follow come from US20100099871A1, “ANTI-PSYCHOTIC COMPOUNDS AND PHARMACEUTICAL COMPOSITIONS THEREOF” (priority 2008, published 2010).

Structures are written as SMILES. Bounds are passed on as bounds.

Sequence of D2 (P14416 whole entry): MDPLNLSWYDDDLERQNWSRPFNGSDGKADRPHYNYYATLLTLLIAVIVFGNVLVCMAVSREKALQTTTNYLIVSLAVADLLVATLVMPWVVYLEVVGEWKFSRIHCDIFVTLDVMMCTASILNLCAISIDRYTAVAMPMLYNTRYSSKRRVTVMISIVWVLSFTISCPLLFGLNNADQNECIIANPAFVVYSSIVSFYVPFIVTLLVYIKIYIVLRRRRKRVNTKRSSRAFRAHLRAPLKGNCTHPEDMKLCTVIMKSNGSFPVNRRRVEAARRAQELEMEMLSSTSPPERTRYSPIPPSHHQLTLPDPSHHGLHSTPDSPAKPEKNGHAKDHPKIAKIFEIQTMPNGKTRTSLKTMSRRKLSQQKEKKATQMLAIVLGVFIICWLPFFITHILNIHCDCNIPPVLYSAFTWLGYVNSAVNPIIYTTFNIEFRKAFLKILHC
Sequence of Alpha 1A (P35348 whole entry): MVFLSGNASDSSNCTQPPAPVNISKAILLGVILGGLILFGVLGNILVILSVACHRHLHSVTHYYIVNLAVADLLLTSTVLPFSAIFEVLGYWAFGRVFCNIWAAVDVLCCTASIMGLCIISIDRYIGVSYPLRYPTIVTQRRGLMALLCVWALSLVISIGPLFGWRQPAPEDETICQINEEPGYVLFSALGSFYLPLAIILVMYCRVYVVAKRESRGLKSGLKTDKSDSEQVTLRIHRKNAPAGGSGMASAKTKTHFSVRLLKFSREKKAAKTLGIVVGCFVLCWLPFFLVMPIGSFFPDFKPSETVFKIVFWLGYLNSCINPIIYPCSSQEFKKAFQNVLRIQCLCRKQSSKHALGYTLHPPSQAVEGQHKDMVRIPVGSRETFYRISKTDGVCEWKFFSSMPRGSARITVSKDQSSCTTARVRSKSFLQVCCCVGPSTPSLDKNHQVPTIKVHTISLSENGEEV
Sequence of M1 (P11229 whole entry): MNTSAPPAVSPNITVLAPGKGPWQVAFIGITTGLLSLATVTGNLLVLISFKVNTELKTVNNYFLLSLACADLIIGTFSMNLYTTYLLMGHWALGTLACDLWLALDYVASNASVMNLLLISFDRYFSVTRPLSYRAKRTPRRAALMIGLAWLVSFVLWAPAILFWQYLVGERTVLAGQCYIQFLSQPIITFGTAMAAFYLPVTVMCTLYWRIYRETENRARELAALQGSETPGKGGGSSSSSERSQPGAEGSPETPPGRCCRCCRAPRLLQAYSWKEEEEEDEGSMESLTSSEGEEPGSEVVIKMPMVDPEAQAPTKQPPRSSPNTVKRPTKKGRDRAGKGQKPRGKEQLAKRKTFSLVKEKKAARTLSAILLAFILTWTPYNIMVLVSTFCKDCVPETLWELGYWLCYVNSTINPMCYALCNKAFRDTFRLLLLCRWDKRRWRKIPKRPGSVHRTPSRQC
Sequence of 5-HT7 (P34969 whole entry, species assumed): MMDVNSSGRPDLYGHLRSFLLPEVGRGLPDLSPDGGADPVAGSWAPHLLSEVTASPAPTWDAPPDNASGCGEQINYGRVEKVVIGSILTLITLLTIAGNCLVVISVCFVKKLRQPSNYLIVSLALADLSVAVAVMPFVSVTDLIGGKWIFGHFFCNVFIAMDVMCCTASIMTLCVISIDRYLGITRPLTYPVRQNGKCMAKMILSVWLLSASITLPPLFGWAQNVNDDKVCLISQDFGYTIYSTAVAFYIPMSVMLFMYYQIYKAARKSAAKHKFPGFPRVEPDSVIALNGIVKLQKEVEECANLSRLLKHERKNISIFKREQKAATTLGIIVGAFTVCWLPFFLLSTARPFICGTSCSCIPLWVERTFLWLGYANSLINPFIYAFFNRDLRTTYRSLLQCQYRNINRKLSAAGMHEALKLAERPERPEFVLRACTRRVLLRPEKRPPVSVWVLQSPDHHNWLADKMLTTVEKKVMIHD

On to `CN1CCN(CCN2c3ccccc3Cc3ccccc32)CC1` [LMD-00076], for which the “In vitro testing data, 5-HT1a (yes / dash)” value on 5-HT1a is reported as “yes”. The Kd at 5-HT2a is 249 nM; at 5-HT2c it was 968 nM; on 5-HT6, 652 nM; at 5-HT7 it was 1140 nM; at D2, 692 nM; at H1 it was 185 nM. Moreover, the Kd on M1 is 707 nM; on M2, 3330 nM; on M3, 702 nM; at M4, 1100 nM; on M5 it was 419 nM. Further, the “In vitro testing data, Alpha 1A (yes)” value at Alpha 1A is “yes”. For the same compound, the “In vitro testing data, Alpha 1B (yes)” value on Alpha 1B is recorded as “yes”. Moreover, the “In vitro testing data, Alpha 1D (yes)” value at Alpha 1D is reported as “yes”. Moreover, the “In vitro testing data, Alpha 2A (yes)” value on Alpha 2A is “yes”. The “In vitro testing data, Alpha 2B (yes)” value at Alpha 2B was “yes”. Besides, the “In vitro testing data, Alpha 2C (yes)” value on Alpha 2C is reported as “yes”. In addition, the “pre-frontal cortex dopamine efflux on co-dosing with WAY 100635” value in test [1] (5-HT1A silent antagonist WAY 100635 co-dosed with LMD-00076 (FIG. 11, curve labeled control)) is “blocked”. The “pre-frontal cortex dopamine release” value in test [1] (as a function of time following administration (FIG. 11, FIG. 14)) is given as “dose-dependent”. Besides, the “nucleus accumbens dopamine release” value in test [2] is recorded as “modest increase”. In addition, the “cortical acetylcholine (ACh) efflux” value in test [3] is “significant increase”.
`CCN1CCN(CCN2c3ccccc3Cc3ccccc32)CC1` [LMD-00060]: the Kd on 5-HT2a was found to be 349 nM; on 5-HT2c, 2740 nM; on 5-HT6, 1520 nM; on 5-HT7 it was 1060 nM; at D2, 632 nM; at H1, 255 nM. Further, the Kd at M1 is 1360 nM; at M2, over 10000 nM; on M3, 2490 nM; on M4, 1910 nM; at M5 it was 613 nM. In addition, the “In vitro testing data, Alpha 1A (yes)” value on Alpha 1A was “yes”. Besides, the “In vitro testing data, Alpha 1B (yes)” value on Alpha 1B is “yes”. Moreover, on Alpha 1D, the “In vitro testing data, Alpha 1D (yes)” value was “yes”. Besides, the “In vitro testing data, Alpha 2A (yes)” value at Alpha 2A is given as “yes”. Moreover, the “In vitro testing data, Alpha 2B (yes)” value at Alpha 2B is on record as “yes”. For the same compound, on Alpha 2C, the “In vitro testing data, Alpha 2C (yes)” value is listed as “yes”.
